Entries after “also recorded” stand apart in the source; their conditions may differ.
What was measured:
[1] = system: hPSCs-derived Podocytes cells; assay: Functional response to stressor stimulation: ZO-1 localization by immunocytochemistry and image based high content analysis; format: cell-based, human; settings: podocytes at Day 13, already at Day 1, sustained at D2 and D5, DMEMF12 medium
Method: (§1) FIG. 6: Characterization of monolayer differentiated hPSCs-derived Podocytes cells at Day 13. hiPSCs have been differentiated in monolayer conditions and at Day 13 have been tested for functional response to TGF beta (10 ng/ml) stressor stimulation. The expression of the tight junction marker ZO-1 has been tested by immunocytochemistry analysis and its cellular localization by image based high content analysis (HCA).
as §1, with “7:” for “6:”, “Angiotensin II (AngII) (100 nM)” for “TGF beta (10 ng/ml)”
The cells were fixed with PBS containing 4% paraformaldehyde for 20 min at room temperature. After three washing with PBS the cells the cells were then blocked with 5% BSA solution (Blocking buffer) for 60 min. When probing for an intracellular antigen, 0.5% Triton-X was included in the blocking buffer. […] Fluorescence was acquired and analyzed by the Operetta® High Content Imaging System (PerkinElmer) followed by computer-based image analysis (ImageJ, Java-based image processing program). […]

[2] = system: hPSCs-derived Podocytes cells; assay: Pro-inflammatory cytokine response assay (Bio-Plex Pro Cytokine, Chemokine and Growth factor assay); format: cell-based, human; settings: TNFα 1 ng/ml and 5 ng/ml, 24 h, DMEMF12 medium
Method: FIG. 8a: Pro-inflammatory cytokine response assay. hPSCs-derived Podocytes cells at Day 13 upregulate the expression of pro-inflammatory markers such as IL-8 upon stimulation with TNFα (1 ng/ml and 5 ng/ml) after 24 h in DMEMF12 medium Main panel: Quantification graph: concentration in the harvested supernatant (pg/ml) of the mentioned cytokines. Bio-Plex Pro Cytokine, Chemokine and Growth factor assay was used to measure the activation of hPSCs-derived Podocytes cells in response to TNFα.
In response to proinflammatory stimuli Podocytes express specific cytokines including IL-8, Rantes, MIP-1b and MCP1. Bio-Plex Pro™ Cytokine, Chemokine and Growth factor assay (Biorad, M50-0KCAF0Y). After overnight serum starvation hiPS derived podocytes were exposed at two different concentrations of TNFα (1 and 5 ng/ml) for 24 hours. After treatment the supernatants were collected and used to quantify the Cytokine, Chemokine and Growth factor release using Bio-Plex Pro™ Cytokine, Chemokine and Growth factor assay kit (Biorad, M50-0KCAF0Y). The assay was performed following the manufacturer's instruction. To determine whether the differentiation system generates bona fide Podocytes, we challenged the iPS-derived Podocytes with proinflammatory TNFα and analyzed for cytokine and chemokine release.

**Q.** How did the “ZO-1 cellular localization (perinuclear translocation of ZO-1 expression)” value ([1]; TGF beta 10 ng/ml) turn out when “TGF beta: stressor stimulation (10 ng/ml) of podocytes” was run?
**A.** The value was “remodeling and translocation of the ZO-1 expression form the membrane to the perinuclear zone”.

**Q.** Which “IL-8 concentration in the harvested supernatant” value [2] does the source give for TNFα here?
**A.** Its value is “increase of the supernatant concentration; also recorded: significantly upregulated”.

**Q.** What about the “MCP1 concentration in the harvested supernatant” value [2] of the same substance?
**A.** Its value is “increase of the supernatant concentration; also recorded: significantly upregulated”.

**Q.** And the “MIP1b concentration in the harvested supernatant” value [2]?
**A.** The value was “increase of the supernatant concentration; also recorded: significantly upregulated”.

**Q.** What about the “RANTES concentration in the harvested supernatant” value [2] of the same substance?
**A.** Its value is “increase of the supernatant concentration; also recorded: significantly upregulated”.

**Q.** For “Angiotensin II [AngII, stressor stimulation (100 nM) of podocytes]”, which “ZO-1 cellular localization (perinuclear translocation of ZO-1 expression)” value ([1]; AngII 100 nM) is on record?
**A.** The value was “remodeling and translocation of the ZO-1 expression form the membrane to the perinuclear zone”.

— patent US10138468B2, “Method for differentiation of pluripotent stem cells into multi-competent renal precursors” (Hoffmann-La Roche Inc., priority 2013, dated 2018)
